Test results taken from PubChem BioAssay (NCI).
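Where inhibition never reached the appropriate level, the endpoint shown equals the highest concentration tested. Otherwise, values were interpolated linearly from a five-concentration, 48-hour dose response in 96-well plates. TGI marks complete inhibition of growth.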

Assays:
Assay in all cases: NCI-60 cell line screen, 48 h
[1] = tested on: 786-0 renal
[2] = tested on: A498 renal
[3] = tested on: A549 NSCLC
[4] = tested on: ACHN renal
[5] = tested on: BT-549 breast
[6] = tested on: CCRF-CEM leukemia
[7] = tested on: COLO 205 colon
[8] = tested on: DU-145 prostate
[9] = tested on: EKVX NSCLC
[10] = tested on: HCC-2998 colon
[11] = tested on: HCT-116 colon
[12] = tested on: HCT-15 colon
[13] = tested on: HL-60(TB) leukemia
[14] = tested on: HOP-62 NSCLC
[15] = tested on: HOP-92 NSCLC
[16] = tested on: HS 578T breast
[17] = tested on: HT29 colon
[18] = tested on: IGROV1 ovarian
[19] = tested on: K-562 leukemia
[20] = tested on: KM12 colon
[21] = tested on: LOX IMVI melanoma
[22] = tested on: M14 melanoma
[23] = tested on: MCF7 breast
[24] = tested on: MDA-MB-231 breast
[25] = tested on: MDA-MB-435
[26] = tested on: MDA-N
[27] = tested on: NCI-H226 lung
[28] = tested on: NCI-H23 lung
[29] = tested on: NCI-H460 lung
[30] = tested on: NCI-H522 lung
[31] = tested on: NCI/ADR-RES ovarian
[32] = tested on: OVCAR-3 ovarian
[33] = tested on: OVCAR-4 ovarian
[34] = tested on: OVCAR-5 ovarian
[35] = tested on: OVCAR-8 ovarian
[36] = tested on: PC-3 prostate
[37] = tested on: RPMI-8226 leukemia
[38] = tested on: RXF 393 renal
[39] = tested on: SF-268 CNS
[40] = tested on: SF-295 CNS
[41] = tested on: SF-539 CNS
[42] = tested on: SK-MEL-2 melanoma
[43] = tested on: SK-MEL-28 melanoma
[44] = tested on: SK-MEL-5 melanoma
[45] = tested on: SN12C renal
[46] = tested on: SNB-19 CNS
[47] = tested on: SR leukemia
[48] = tested on: SW-620 colon
[49] = tested on: T-47D breast
[50] = tested on: TK-10 renal
[51] = tested on: U251 CNS
[52] = tested on: UACC-257 melanoma
[53] = tested on: UACC-62 melanoma
[54] = tested on: UO-31 renal
[55] = tested on: CAKI-1 renal
[56] = tested on: MOLT-4 leukemia
[57] = tested on: SK-OV-3 ovarian
[58] = tested on: SNB-75 CNS

Measured: TGI

Nc1ncnc2oc(-c3cccs3)nc12
> 100 µM: [1] | [2] | [3] | [4] | [5] | [6] | [7] | [8] | [9] | [10] | [11] | [12] | [13] | [14] | [15] | [16] | [17] | [18] | [19] | [20] | [21] | [22] | [23] | [24] | [25] | [26] | [27] | [28] | [29] | [30] | [31] | [32] | [33] | [34] | [35] | [36] | [37] | [38] | [39] | [40] | [41] | [42] | [43] | [44] | [45] | [46] | [47] | [48] | [49] | [50] | [51] | [52] | [53] | [54]

NC(=O)NN=C1C[C@H]2CCCC[C@H]2C1
> 100 µM: [1] | [2] | [3] | [4] | [5] | [55] | [7] | [8] | [9] | [10] | [11] | [12] | [13] | [14] | [15] | [16] | [17] | [18] | [19] | [20] | [21] | [22] | [23] | [24] | [25] | [26] | [56] | [27] | [29] | [30] | [31] | [32] | [33] | [34] | [35] | [36] | [37] | [39] | [40] | [41] | [42] | [43] | [44] | [57] | [45] | [46] | [58] | [47] | [48] | [49] | [50] | [51] | [52] | [53] | [54]

CN1C(NN)=NS(=O)(=O)c2ccccc21
> 100 µM: [1] | [2] | [3] | [4] | [5] | [55] | [6] | [7] | [8] | [9] | [10] | [11] | [12] | [13] | [14] | [15] | [16] | [17] | [18] | [19] | [20] | [21] | [22] | [23] | [24] | [25] | [26] | [56] | [27] | [28] | [29] | [30] | [31] | [32] | [33] | [34] | [35] | [36] | [38] | [39] | [40] | [41] | [42] | [43] | [44] | [57] | [45] | [46] | [47] | [48] | [49] | [50] | [51] | [52] | [53] | [54]
